Reference: US10537563B2, “Methods for treating ocular disease using inhibitors of CSF-1R” (NOVARTIS AG, priority 2016, dated 2020)

What was measured:
Khs1 (h) = target: T1, Khs1 (h) (Homo sapiens, UniProt Q9Y4K4); experiment: Kinase profiling at Invitrogen; type: biochemical
T1 construct: purchased Invitrogen

Fyn = Fyn (Homo sapiens, UniProt P06241); experiment: In vitro kinase assay (Table 1); type: biochemical
PIK3Calpha = PIK3Calpha (Homo sapiens, UniProt P42336); experiment: In vitro kinase assay (Table 1); type: biochemical
[1] = target: T2, BAF/Tel-IGF1R-FL-N.1/sACP (Homo sapiens, UniProt P08069); experiment: BaF3 proliferation assay; type: cell-based, murine
T2 construct: BAF/Tel-IGF1R-FL- N.1/sACP; fused on or other part: P41212 (Transcription factor ETV6)

mut_bRaf_V599E = mut_bRaf_V599E (Homo sapiens, UniProt P15056, V600E); experiment: In vitro kinase assay (Table 1); type: biochemical
BAF/Tel-Tie1-Q2/sACP = target: T3, BAF/Tel-Tie1-Q2/sACP (Homo sapiens, UniProt P35590); experiment: BaF3 proliferation assay; type: cell-based, murine
T3 construct: fused on or other part: P41212 (Transcription factor ETV6)

MCP-1 = MCP-1 production by human monocytes (ELISA); type: cell-based; conditions: Monocyte
Procedure: (§1) Freshly isolated human PBMCs were used to purify human monocytes by negative selection using an indirect magnetic labeling system. […] Soluble factors such as cytokines (VEGFa, IL-6 etc.) and chemokines (IL-8, MCP-1, MMP9 etc.) in the culture supernatant were measured using commercial ELISA kits. The in vitro survival of human macrophages was measured using a commercially available CellTiter-Glo® system. Most observed results were repeated in multiple donors (n>5).

Pim1 = Pim1 (Homo sapiens, UniProt P11309); experiment: In vitro kinase assay (Table 1); type: biochemical
PDGFRKalphaT674I (h) = target: T4, PDGFRKalphaT674I (h) (Homo sapiens, UniProt P16234, T674I); experiment: Kinase profiling at Invitrogen; type: biochemical
T4 construct: purchased Invitrogen

VEGFa = VEGFa production by human macrophages; type: cell-based; conditions: stimulation with MCSF or IL-34
Procedure: as §1
Activated human macrophages are a source of VEGFa. Human macrophages produce VEGFa following stimulation with MCSF or IL-34.

IL-8 = IL-8 production by human monocytes (ELISA); type: cell-based; conditions: Monocyte
Procedure: as §1

BaF3-Tel-INSR 1.2 = target: T5, BaF3-Tel-INSR 1.2 (Homo sapiens, UniProt P06213); experiment: BaF3 proliferation assay; type: cell-based, murine
T5 construct: fused on or other part: P41212 (Transcription factor ETV6)

Ck1gamma2 = Ck1gamma2 (Homo sapiens, UniProt P78368); experiment: In vitro kinase assay (Table 1); type: biochemical
PKC_theta = PKC_theta (Homo sapiens, UniProt Q04759); experiment: In vitro kinase assay (Table 1); type: biochemical
BAF/Tel-RON-4.1/sACP = target: T6, BAF/Tel-RON-4.1/sACP (Homo sapiens, UniProt Q04912); experiment: BaF3 proliferation assay; type: cell-based, murine
T6 construct: fused on or other part: P41212 (Transcription factor ETV6)

ZAP70 = ZAP70 (Homo sapiens, UniProt P43403); experiment: In vitro kinase assay (Table 1); type: biochemical
BAF/Tel-EphA3-4.2/sACP = target: T7, BAF/Tel-EphA3-4.2/sACP (Homo sapiens, UniProt P29320); experiment: BaF3 proliferation assay; type: cell-based, murine
T7 construct: fused on or other part: P41212 (Transcription factor ETV6)

Pim2 = Pim2 (Homo sapiens, UniProt Q9P1W9); experiment: In vitro kinase assay (Table 1); type: biochemical
Lck = Lck (Homo sapiens, UniProt P06239); experiment: In vitro kinase assay (Table 1); type: biochemical
BaF-Tel-FGFR3 = target: T8, BaF-Tel-FGFR3 (Homo sapiens, UniProt P22607); experiment: BaF3 proliferation assay; type: cell-based, murine
T8 construct: fused on or other part: P41212 (Transcription factor ETV6)

BAF/Tel-FGFR3-Q2/sACP = target: T9, BAF/Tel-FGFR3-Q2/sACP (Homo sapiens, UniProt P22607); experiment: BaF3 proliferation assay; type: cell-based, murine
T9 construct: fused on or other part: P41212 (Transcription factor ETV6)

Hck = Hck (Homo sapiens, UniProt P08631); experiment: In vitro kinase assay (Table 1); type: biochemical
PIK3Cbeta = PIK3Cbeta (Homo sapiens, UniProt P42338); experiment: In vitro kinase assay (Table 1); type: biochemical
BAF/Tel-ZAP70-1.1/sACP = target: T10, BAF/Tel-ZAP70-1.1/sACP (Homo sapiens, UniProt P43403); experiment: BaF3 proliferation assay; type: cell-based, murine
T10 construct: fused on or other part: P41212 (Transcription factor ETV6)

BAF/Tel-TRKA-Q.3/sACP = target: T11, BAF/Tel-TRKA-Q.3/sACP (Homo sapiens, UniProt P04629); experiment: BaF3 proliferation assay; type: cell-based, murine
T11 construct: fused on or other part: P41212 (Transcription factor ETV6)

Cdk7 cyclinH MAT1 = Cdk7 cyclinH MAT1 (Homo sapiens, UniProt P50613); experiment: In vitro kinase assay (Table 1); type: biochemical
Jak2 = Jak2 (Homo sapiens, UniProt O60674); experiment: In vitro kinase assay (Table 1); type: biochemical
KDR = KDR (Homo sapiens, UniProt P35968); experiment: In vitro kinase assay (Table 1); type: biochemical; conditions: KDR=VEGF receptor
cRaf = cRaf (Homo sapiens, UniProt P04049); experiment: In vitro kinase assay (Table 1); type: biochemical
BAF/Tel-AlK-Q1/sACP = target: T12, BAF/Tel-AlK-Q1/sACP (Homo sapiens, UniProt Q9UM73); experiment: BaF3 proliferation assay; type: cell-based, murine
T12 construct: fused on or other part: P41212 (Transcription factor ETV6)

TRKB = TRKB (Homo sapiens, UniProt Q16620); experiment: In vitro kinase assay (Table 1); type: biochemical
human macrophages = experiment: CSF-1 and IL-34 mediated macrophage survival; type: cell-based; conditions: 0.1 to 10 μM; 4 donors
Procedure: as §1
A dose range (0 to 100 ng/ml) of CSF-1 or IL-34 was tested and macrophage survival positively correlated with increasing dose of CSF-1 or IL-34 with no difference between the 2 factors observed.

BAF/Tel-Syk-1.1/sACP = target: T13, BAF/Tel-Syk-1.1/sACP (Homo sapiens, UniProt P43405); experiment: BaF3 proliferation assay; type: cell-based, murine
T13 construct: fused on or other part: P41212 (Transcription factor ETV6)

T1 sequence (Q9Y4K4 whole entry): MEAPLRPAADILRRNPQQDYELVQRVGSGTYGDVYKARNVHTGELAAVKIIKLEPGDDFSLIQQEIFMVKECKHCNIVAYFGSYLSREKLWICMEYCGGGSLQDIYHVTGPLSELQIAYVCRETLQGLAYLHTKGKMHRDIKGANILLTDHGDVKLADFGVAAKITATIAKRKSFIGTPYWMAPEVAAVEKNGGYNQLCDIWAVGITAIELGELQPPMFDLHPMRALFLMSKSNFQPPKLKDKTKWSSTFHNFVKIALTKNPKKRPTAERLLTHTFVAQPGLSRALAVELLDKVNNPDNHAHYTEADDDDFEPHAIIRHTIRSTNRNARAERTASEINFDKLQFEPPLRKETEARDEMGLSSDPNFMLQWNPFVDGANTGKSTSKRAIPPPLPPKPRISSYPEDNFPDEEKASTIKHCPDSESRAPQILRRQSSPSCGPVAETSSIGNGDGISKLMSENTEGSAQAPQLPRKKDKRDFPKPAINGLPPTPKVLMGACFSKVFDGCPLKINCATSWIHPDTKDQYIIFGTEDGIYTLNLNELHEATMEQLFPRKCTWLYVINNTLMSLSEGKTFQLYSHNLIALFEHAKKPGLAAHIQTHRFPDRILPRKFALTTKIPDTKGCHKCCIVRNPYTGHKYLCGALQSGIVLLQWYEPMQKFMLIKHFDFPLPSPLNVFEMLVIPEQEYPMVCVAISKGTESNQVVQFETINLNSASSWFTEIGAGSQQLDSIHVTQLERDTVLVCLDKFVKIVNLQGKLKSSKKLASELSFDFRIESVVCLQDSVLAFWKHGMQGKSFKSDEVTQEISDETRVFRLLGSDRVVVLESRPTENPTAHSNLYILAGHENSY
T4 sequence (P16234 550-1089 T674I limits assumed): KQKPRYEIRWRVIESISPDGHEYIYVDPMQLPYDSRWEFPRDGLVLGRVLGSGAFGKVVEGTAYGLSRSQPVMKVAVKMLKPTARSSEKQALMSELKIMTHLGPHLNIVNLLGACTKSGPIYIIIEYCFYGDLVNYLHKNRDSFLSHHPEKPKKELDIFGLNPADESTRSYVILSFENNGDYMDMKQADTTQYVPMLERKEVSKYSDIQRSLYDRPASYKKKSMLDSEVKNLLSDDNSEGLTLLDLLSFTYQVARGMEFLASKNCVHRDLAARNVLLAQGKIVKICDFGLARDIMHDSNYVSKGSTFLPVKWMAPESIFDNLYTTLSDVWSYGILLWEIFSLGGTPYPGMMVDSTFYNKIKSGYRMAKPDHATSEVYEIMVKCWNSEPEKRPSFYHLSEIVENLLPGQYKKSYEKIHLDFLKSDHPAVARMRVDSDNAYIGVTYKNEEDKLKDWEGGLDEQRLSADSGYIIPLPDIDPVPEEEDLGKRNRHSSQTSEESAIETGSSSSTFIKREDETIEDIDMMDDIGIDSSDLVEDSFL
Chain of KDR (P35968 20-1356, species assumed): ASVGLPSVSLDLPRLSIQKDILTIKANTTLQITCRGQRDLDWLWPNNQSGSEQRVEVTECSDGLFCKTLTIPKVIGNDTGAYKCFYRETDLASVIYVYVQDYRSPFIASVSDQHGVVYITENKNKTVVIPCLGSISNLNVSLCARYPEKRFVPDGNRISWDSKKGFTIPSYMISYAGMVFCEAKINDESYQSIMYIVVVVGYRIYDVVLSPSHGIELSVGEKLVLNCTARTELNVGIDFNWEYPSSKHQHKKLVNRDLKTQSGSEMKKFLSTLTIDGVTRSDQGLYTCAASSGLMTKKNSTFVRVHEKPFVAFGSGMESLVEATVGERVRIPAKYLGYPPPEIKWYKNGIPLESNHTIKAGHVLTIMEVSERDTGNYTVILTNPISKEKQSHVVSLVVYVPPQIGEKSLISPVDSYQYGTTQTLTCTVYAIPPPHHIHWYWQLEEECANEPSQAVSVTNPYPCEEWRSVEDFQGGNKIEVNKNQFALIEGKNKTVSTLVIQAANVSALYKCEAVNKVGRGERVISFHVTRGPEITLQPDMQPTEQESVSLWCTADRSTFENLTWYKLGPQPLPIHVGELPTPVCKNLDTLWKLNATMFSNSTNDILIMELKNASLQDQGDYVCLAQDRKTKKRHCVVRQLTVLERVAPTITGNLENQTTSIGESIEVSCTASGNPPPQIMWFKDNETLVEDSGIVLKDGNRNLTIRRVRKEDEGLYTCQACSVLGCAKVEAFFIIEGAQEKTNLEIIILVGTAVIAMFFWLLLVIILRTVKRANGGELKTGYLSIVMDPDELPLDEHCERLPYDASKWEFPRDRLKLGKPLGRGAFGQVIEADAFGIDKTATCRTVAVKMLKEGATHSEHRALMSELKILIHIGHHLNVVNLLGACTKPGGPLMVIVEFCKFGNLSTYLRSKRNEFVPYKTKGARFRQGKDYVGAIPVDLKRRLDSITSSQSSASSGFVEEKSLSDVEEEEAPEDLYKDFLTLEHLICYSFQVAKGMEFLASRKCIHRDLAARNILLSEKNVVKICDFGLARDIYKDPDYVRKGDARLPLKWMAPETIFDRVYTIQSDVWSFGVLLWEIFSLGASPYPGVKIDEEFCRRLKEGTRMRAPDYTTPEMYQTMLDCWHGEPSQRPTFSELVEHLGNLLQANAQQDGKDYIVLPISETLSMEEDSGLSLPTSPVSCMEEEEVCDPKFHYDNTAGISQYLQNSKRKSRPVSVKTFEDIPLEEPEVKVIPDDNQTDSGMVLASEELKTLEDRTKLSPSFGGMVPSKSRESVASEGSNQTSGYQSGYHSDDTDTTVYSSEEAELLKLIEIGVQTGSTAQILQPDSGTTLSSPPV
Chain of Pim1 (P11309 whole entry, species assumed): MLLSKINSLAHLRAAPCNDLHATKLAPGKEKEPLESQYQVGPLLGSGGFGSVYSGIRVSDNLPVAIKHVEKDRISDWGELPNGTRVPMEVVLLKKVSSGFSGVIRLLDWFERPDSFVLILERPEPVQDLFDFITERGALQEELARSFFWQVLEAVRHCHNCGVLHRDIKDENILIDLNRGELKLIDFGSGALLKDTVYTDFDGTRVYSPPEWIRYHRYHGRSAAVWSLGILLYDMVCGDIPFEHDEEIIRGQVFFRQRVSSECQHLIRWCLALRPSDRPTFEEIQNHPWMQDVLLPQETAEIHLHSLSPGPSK
Chain of cRaf (P04049 whole entry, species assumed): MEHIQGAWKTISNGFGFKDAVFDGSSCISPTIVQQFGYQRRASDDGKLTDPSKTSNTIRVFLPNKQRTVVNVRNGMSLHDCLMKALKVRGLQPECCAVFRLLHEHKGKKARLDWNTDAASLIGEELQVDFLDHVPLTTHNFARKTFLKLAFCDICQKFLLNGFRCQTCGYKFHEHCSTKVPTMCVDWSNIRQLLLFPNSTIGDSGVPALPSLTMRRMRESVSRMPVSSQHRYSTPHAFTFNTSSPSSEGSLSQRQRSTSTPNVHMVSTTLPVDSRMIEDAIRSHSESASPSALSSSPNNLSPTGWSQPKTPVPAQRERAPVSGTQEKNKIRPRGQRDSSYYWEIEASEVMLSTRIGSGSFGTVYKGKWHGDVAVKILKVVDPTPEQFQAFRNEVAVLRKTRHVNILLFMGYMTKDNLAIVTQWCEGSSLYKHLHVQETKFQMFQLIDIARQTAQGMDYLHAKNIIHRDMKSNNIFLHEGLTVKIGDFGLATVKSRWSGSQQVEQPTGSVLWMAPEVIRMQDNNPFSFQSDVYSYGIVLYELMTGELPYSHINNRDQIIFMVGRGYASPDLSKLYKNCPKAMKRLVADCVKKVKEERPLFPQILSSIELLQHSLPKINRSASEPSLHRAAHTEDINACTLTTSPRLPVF
T6 sequence (Q04912 1082-1345 limits assumed, change not shown): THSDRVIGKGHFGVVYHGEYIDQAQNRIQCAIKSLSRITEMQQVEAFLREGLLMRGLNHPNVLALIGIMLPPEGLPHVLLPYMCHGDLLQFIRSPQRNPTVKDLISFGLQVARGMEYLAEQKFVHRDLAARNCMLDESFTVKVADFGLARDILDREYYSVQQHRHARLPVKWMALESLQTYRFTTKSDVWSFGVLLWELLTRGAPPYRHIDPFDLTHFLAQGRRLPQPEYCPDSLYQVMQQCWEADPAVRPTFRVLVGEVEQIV
T5 sequence (P06213 1023-1298 limits assumed, stated change not applied): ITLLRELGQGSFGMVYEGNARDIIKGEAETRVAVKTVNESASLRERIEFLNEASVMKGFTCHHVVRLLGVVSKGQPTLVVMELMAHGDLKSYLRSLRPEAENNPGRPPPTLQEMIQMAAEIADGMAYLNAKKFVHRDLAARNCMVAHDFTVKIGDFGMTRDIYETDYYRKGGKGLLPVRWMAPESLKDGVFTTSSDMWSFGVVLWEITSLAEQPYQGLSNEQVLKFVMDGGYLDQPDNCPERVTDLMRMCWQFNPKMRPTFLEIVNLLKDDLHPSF
T12 sequence (Q9UM73 1116-1392 limits assumed, change not shown): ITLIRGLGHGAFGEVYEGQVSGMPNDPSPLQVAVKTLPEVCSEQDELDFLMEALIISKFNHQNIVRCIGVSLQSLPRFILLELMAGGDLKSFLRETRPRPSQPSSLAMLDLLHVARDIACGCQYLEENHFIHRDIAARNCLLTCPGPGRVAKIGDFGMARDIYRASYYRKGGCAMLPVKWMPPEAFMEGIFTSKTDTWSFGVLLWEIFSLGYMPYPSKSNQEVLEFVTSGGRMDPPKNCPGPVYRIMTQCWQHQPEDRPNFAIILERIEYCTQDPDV
T7 sequence (P29320 621-882 limits assumed, change not shown): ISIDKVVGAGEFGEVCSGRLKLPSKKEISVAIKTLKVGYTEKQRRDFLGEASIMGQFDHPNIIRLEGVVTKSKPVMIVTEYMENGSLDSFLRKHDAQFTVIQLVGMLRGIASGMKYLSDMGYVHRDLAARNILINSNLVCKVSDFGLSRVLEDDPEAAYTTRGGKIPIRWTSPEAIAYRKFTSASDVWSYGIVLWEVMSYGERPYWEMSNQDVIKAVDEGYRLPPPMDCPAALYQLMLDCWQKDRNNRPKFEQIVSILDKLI

SMILES: CNC(=O)c1cc(Oc2ccc3nc(NC4CCCCC4O)sc3c2)ccn1 (centres unmarked) [Compound (I)]
- inhibition at 0.5 µM (Khs1 (h); read-out: % inhibition @ 0.5 μM, Khs1 (h)): 15%
- inhibition at 5 µM (Khs1 (h); read-out: % inhibition @ 5 μM, Khs1 (h)): 27%
- inhibition at 20 µM (Khs1 (h); read-out: % inhibition @ 20 μM, Khs1 (h)): 52%
- IC50 (Fyn): > 10 µM
- IC50 (PIK3Calpha): > 25 µM
- EC50 [1]: > 10 µM
- IC50 (mut_bRaf_V599E): > 25 µM
- EC50 (BAF/Tel-Tie1-Q2/sACP): > 10 µM
- inhibition at 0.05 µM (MCP-1): 30 to 70%
- IC50 (Pim1): > 25 µM
- inhibition at 0.5 µM (PDGFRKalphaT674I (h); read-out: % inhibition @ 0.5 μM, PDGFRKalphaT674I (h)): -3%
- inhibition at 5 µM (PDGFRKalphaT674I (h); read-out: % inhibition @ 5 μM, PDGFRKalphaT674I (h)): 2%
- inhibition at 20 µM (PDGFRKalphaT674I (h); read-out: % inhibition @ 20 μM, PDGFRKalphaT674I (h)): 45%
- VEGFa levels of human macrophages (VEGFa): significantly decreased
- inhibition at 0.05 µM (IL-8): 7 to 90%
- EC50 (BaF3-Tel-INSR 1.2): > 10 µM
- IC50 (Ck1gamma2): > 10 µM
- IC50 (PKC_theta): > 10 µM
- EC50 (BAF/Tel-RON-4.1/sACP): > 10 µM
- IC50 (ZAP70): > 10 µM
- EC50 (BAF/Tel-EphA3-4.2/sACP): > 10 µM
- IC50 (Pim2): > 25 µM
- IC50 (Lck): > 10 µM
- EC50 (BaF-Tel-FGFR3): > 10 µM
- EC50 (BAF/Tel-FGFR3-Q2/sACP): > 10 µM
- IC50 (Hck): > 10 µM
- IC50 (PIK3Cbeta): > 25 µM
- EC50 (BAF/Tel-ZAP70-1.1/sACP): > 10 µM
- EC50 (BAF/Tel-TRKA-Q.3/sACP): > 10 µM
- IC50 (Cdk7 cyclinH MAT1): > 10 µM
- IC50 (Jak2): > 25 µM
- IC50 (KDR): > 25 µM
- IC50 (cRaf): > 10 µM
- EC50 (BAF/Tel-AlK-Q1/sACP): > 10 µM
- IC50 (TRKB): > 10 µM
- CSF-1 mediated macrophage survival (human macrophages): significantly affects
- IL-34 mediated macrophage survival (human macrophages): significantly affects
- EC50 (BAF/Tel-Syk-1.1/sACP): > 10 µM
